Source: US12686673B2 (Blueprint Medicines Corporation, priority 2020, dated 2026)
Counter-ions that a name gives are not always drawn. Like-named read-outs stand apart in the source and are kept apart here.

How the values were obtained:
Assay type in all cases: cell-based
[1] = tested on: A431 cells; assay: Cellular proliferation (Alamar Blue) assay, A431
[2] = molecular target: EGFR (A767_dupASV) expressing Ba/F3 stable cell line (Homo sapiens, UniProt P00533, DUP767-769, cells depend on it); assay: Cellular proliferation (Alamar Blue) assay, EGFR A767_dupASV Ba/F3; details: 72 hr, read-out: A767 IC50
EGFR (A767_dupASV) expressing Ba/F3 stable cell line, sequence (P00533 with tags, fused parts or gaps DUP767-769): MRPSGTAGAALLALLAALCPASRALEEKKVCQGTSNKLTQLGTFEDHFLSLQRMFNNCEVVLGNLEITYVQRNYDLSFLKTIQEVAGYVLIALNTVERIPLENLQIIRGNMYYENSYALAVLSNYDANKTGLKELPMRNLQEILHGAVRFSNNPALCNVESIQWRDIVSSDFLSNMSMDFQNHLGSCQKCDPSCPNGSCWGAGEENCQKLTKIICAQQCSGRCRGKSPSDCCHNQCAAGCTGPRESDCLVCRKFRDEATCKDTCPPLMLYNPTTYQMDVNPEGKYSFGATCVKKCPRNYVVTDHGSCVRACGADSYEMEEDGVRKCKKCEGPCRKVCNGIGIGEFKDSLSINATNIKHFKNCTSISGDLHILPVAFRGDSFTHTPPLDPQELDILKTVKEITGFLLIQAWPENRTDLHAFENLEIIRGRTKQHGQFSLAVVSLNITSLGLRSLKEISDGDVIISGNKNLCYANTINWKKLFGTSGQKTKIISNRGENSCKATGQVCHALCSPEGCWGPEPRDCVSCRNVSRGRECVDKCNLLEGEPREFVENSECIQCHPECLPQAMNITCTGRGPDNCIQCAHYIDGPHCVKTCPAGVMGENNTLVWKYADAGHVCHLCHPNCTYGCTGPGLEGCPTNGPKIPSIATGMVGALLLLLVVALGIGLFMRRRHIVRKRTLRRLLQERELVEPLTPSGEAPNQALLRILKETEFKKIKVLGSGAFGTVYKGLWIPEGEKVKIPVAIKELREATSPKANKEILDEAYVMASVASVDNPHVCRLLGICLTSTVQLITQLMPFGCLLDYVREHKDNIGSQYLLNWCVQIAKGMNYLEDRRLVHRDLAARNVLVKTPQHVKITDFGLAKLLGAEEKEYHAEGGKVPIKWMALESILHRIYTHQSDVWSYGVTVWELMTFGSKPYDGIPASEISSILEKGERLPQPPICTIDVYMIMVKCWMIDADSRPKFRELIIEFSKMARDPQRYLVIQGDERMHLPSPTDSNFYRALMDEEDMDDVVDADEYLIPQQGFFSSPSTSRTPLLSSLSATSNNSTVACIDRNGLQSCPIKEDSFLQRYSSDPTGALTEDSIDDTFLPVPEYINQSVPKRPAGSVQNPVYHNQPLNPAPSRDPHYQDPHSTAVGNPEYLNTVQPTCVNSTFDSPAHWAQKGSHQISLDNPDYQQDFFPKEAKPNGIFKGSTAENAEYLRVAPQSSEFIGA
In short: (§1)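 Proliferation of mutant-dependent Ba/F3 lines is measured by Alamar Blue reduction over 3 hours, following a 72 hr incubation with test compound spanning 10-0.0005 μM final in threefold dilutions. Cells go in at 15,000 per well in RPMI containing 10% FBS the day before dosing.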

[3] = molecular target: HER2 (A775_G776insYVMA) expressing Ba/F3 stable cell line (Homo sapiens, UniProt P04626, DUP772-775, cells depend on it); assay: Cellular proliferation (Alamar Blue) assay, HER2 A775_G776insYVMA Ba/F3; details: 72 hr, read-out: YVMA IC50
HER2 (A775_G776insYVMA) expressing Ba/F3 stable cell line, sequence (P04626 with tags, fused parts or gaps DUP772-775): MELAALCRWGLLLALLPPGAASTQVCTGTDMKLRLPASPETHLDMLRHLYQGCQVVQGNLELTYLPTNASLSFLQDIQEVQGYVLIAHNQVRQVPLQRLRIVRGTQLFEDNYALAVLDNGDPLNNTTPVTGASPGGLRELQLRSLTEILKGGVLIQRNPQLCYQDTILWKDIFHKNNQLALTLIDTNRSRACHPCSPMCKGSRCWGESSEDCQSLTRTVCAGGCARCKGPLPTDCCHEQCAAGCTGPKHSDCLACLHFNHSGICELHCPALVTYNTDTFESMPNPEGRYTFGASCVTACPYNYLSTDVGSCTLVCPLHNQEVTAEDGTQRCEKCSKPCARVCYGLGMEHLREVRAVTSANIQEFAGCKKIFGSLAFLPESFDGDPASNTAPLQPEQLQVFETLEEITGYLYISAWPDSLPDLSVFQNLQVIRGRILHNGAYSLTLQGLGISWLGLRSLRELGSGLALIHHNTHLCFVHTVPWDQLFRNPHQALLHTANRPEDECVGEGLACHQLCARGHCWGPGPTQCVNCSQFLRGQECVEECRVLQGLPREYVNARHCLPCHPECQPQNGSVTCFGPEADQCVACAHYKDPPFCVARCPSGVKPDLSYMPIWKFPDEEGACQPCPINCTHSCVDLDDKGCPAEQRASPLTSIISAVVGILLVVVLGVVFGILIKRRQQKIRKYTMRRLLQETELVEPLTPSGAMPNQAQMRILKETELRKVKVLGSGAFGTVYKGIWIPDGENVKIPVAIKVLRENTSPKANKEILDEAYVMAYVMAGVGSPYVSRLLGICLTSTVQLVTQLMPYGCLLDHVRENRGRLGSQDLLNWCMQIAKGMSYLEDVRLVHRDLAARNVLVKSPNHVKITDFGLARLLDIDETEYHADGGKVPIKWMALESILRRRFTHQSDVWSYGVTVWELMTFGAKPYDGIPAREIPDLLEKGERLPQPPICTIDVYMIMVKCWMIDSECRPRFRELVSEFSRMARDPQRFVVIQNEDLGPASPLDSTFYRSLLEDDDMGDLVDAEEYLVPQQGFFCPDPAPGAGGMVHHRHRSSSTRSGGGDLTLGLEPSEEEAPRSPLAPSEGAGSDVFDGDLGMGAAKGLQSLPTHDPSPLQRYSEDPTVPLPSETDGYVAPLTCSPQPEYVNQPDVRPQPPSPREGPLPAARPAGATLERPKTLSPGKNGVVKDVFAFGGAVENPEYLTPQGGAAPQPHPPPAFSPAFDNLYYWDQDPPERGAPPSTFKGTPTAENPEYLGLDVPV
In short: as §1

[4] = molecular target: EGFR(D770_N771insSVD) expressing Ba/F3 stable cell line (Homo sapiens, UniProt P00533, DUP768-770, cells depend on it); assay: Cellular proliferation (Alamar Blue) assay, EGFR D770_N771insSVD Ba/F3; details: 72 hr, read-out: D770 IC50
EGFR(D770_N771insSVD) expressing Ba/F3 stable cell line, sequence (P00533 with tags, fused parts or gaps DUP768-770): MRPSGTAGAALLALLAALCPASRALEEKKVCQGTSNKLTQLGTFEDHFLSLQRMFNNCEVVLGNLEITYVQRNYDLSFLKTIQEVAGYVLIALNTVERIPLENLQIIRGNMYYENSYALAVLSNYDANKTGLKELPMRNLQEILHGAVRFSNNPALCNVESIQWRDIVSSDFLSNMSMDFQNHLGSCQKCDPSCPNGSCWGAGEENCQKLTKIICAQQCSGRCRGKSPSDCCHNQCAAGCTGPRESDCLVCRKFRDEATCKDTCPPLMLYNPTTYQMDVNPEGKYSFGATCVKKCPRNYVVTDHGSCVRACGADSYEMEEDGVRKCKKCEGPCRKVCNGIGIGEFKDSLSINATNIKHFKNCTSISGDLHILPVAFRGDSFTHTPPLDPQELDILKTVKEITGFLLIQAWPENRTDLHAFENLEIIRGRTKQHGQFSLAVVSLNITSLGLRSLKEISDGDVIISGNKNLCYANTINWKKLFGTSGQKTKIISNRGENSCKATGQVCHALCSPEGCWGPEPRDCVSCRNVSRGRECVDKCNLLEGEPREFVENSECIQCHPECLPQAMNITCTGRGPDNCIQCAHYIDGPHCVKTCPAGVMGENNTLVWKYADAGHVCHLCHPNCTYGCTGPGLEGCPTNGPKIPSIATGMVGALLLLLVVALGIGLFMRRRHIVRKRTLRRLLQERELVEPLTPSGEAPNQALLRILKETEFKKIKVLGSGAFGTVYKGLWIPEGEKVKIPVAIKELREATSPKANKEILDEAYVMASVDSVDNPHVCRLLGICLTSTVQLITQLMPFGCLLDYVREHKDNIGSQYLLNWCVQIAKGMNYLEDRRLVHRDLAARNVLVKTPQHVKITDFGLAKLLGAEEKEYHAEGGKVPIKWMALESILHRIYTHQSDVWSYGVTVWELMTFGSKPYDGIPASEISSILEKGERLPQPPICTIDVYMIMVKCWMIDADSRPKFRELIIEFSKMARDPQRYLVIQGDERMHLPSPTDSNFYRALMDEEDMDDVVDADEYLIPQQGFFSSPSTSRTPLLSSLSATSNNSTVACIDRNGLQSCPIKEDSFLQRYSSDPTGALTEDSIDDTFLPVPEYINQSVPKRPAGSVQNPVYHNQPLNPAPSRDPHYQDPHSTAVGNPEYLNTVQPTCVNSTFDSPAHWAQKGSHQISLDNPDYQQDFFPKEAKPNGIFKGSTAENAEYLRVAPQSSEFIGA
In short: as §1

[5] = molecular target: EGFR (H773insNPH) expressing Ba/F3 stable cell line (Homo sapiens, UniProt P00533, DUP771-773, cells depend on it); assay: Cellular proliferation (Alamar Blue) assay, EGFR H773insNPH Ba/F3; details: 72 hr, read-out: NPH IC50
EGFR (H773insNPH) expressing Ba/F3 stable cell line, sequence (P00533 with tags, fused parts or gaps DUP771-773): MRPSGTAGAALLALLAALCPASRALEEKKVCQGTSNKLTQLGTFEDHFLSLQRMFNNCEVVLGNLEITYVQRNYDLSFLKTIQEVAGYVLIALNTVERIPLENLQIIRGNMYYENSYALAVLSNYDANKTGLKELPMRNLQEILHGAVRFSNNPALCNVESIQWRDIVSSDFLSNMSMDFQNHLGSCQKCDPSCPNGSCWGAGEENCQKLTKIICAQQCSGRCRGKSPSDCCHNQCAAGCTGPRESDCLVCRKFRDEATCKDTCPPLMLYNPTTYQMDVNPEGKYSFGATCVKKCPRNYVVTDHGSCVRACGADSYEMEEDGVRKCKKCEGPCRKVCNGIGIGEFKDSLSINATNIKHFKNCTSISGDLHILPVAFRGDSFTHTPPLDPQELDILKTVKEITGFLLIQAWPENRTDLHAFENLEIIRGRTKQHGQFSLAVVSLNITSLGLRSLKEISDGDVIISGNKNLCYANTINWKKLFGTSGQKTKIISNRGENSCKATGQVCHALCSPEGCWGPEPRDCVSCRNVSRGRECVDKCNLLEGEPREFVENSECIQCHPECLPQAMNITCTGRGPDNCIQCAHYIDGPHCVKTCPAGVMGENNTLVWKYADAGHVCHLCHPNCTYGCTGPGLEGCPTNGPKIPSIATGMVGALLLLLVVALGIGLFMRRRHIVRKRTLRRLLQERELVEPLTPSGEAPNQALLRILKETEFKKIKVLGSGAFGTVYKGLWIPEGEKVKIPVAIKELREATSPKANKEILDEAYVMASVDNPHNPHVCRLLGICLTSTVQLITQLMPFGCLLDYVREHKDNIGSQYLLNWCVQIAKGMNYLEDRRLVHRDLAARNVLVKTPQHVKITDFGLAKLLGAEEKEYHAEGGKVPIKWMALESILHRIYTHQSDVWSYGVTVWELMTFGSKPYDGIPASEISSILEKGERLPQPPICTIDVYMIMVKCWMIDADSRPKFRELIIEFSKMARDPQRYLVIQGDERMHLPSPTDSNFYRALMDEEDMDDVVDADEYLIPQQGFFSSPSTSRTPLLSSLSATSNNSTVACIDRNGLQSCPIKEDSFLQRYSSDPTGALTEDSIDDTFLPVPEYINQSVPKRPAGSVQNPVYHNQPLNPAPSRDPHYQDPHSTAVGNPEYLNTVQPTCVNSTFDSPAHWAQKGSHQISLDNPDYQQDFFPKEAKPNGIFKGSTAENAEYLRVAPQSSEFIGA
In short: as §1

[6] = Homo sapiens, A-431; A431 cells, Alamar Blue, 72 hr; read-out: A431 IC50
[7] = Homo sapiens, A-431; A431 cells, 72 hr, Alamar Blue; read-out: A431 IC50

IC50 [1, 6] [nM]	GI50 [2] [nM]	GI50 [3] [nM]	GI50 [4] [nM]	GI50 [5] [nM]	IC50 [1, 7] [nM]	SMILES	IC50 ([1]; A431 cells, 72 hr, Alamar Blue; read-out: A431 IC50) [nM]
22	34	269	32	58	–	C=CC(=O)Nc1ccc(F)c(Nc2nc(Nc3cnn(C)c3)ncc2-c2ccc(OC(F)F)cc2)c1 [Compound 140, N-(3-((5-(4-(difluoromethoxy)phenyl)-2-((1-methyl-1H-pyrazol-4-yl)amino)pyrimidin-4-yl)amino)-4-fluorophenyl)acrylamide]	–
169	34	50	16	24	–	C=CC(=O)Nc1cccc(Nc2nc(Nc3cnn(C)c3)ncc2-c2ccc(OC(F)F)cc2)c1 [Compound 142, N-(3-((5-(4-(difluoromethoxy)phenyl)-2-((1-methyl-1H-pyrazol-4-yl)amino)pyrimidin-4-yl)amino)phenyl)acrylamide trifluoroacetate]	–
122	70	38	37	101	–	C=CC(=O)Nc1cccc(Nc2nc(Nc3cnn(C)c3)ncc2-c2cncc(C(F)F)c2)c1 [Compound 144, N-(3-((5-(5-(difluoromethyl)pyridin-3-yl)-2-((1-methyl-1H-pyrazol-4-yl)amino)pyrimidin-4-yl)amino)phenyl)acrylamide trifluoroacetate]	–
375	129	354	105	226	–	C=CC(=O)Nc1cccc(Oc2nc(Nc3cnn(C)c3)ncc2-c2ccc(C(F)(F)F)cc2)c1 [Compound 151, N-(3-((2-((1-methyl-1H-pyrazol-4-yl)amino)-5-(4-(trifluoromethyl)phenyl)pyrimidin-4-yl)oxy)phenyl)acrylamide]	–
97	27	60	37	222	–	C=CC(=O)Nc1cccc(Oc2nc(Nc3cnn(C)c3)ncc2-c2cncc(F)c2)c1 [Compound 184, N-(3-((5-(5-fluoropyridin-3-yl)-2-((1-methyl-1H-pyrazol-4-yl)amino)pyrimidin-4-yl)oxy)phenyl)acrylamide]	–
522	37	113	40	97	–	C=CC(=O)Nc1cccc(Oc2nc(Nc3cnn(C)c3)ncc2-c2ccc(Cl)nc2)c1 [Compound 185, N-(3-((5-(6-chloropyridin-3-yl)-2-((1-methyl-1H-pyrazol-4-yl)amino)pyrimidin-4-yl)oxy)phenyl)acrylamide]	–
170	90	175	114	106	–	C=CC(=O)Nc1cccc(Oc2nc(Nc3cnn(C)c3)ncc2-c2ccc(C)nc2)c1 [Compound 186, N-(3-((2-((1-methyl-1H-pyrazol-4-yl)amino)-5-(6-methylpyridin-3-yl)pyrimidin-4-yl)oxy)phenyl)acrylamide]	–
281	61	226	40	99	–	C=CC(=O)Nc1cccc(Oc2nc(Nc3cnn(C)c3)ncc2-c2ccc(C(F)F)nc2)c1 [Compound 187, N-(3-((5-(6-(difluoromethyl)pyridin-3-yl)-2-((1-methyl-1H-pyrazol-4-yl)amino)pyrimidin-4-yl)oxy)phenyl)acrylamide]	–
216	118	269	108	300	–	C=CC(=O)Nc1cccc(Oc2nc(Nc3cnn(C)c3)ncc2-c2ccc(OC(F)F)nc2)c1 [Compound 188, N-(3-((5-(6-(difluoromethoxy)pyridin-3-yl)-2-((1-methyl-1H-pyrazol-4-yl)amino)pyrimidin-4-yl)oxy)phenyl)acrylamide]	–

More lines, now with the values behind:

SMILES	IC50 [1, 6] [nM]	GI50 [2] [nM]	GI50 [3] [nM]	GI50 [4] [nM]	GI50 [5] [nM]	IC50 [1, 7] [nM]	IC50 ([1]; A431 cells, 72 hr, Alamar Blue; read-out: A431 IC50) [nM]
C=CC(=O)Nc1ccc(F)c(Nc2nc(Nc3cnn(C)c3)ncc2-c2cncc(OC)c2)c1 [Compound 141, N-(4-fluoro-3-((5-(5-methoxypyridin-3-yl)-2-((1-methyl-1H-pyrazol-4-yl)amino)pyrimidin-4-yl)amino)phenyl)acrylamide]	141	100	201	101	49	–	–
C=CC(=O)Nc1ccc(F)c(Nc2nc(Nc3cnn(C)c3)ncc2-c2cncnc2)c1 [Compound 147, N-(4-fluoro-3-((2-((1-methyl-1H-pyrazol-4-yl)amino)-[5,5′-bipyrimidin]-4-yl)amino)phenyl)acrylamide trifluoroacetate]	466	101	100	105	68	–	–
C=CC(=O)Nc1ccc(F)c(Oc2nc(Nc3cnn(C)c3)ncc2-c2ccc(C(F)(F)F)cc2)c1 [Compound 152, N-(4-fluoro-3-((2-((1-methyl-1H-pyrazol-4-yl)amino)-5-(4-(trifluoromethyl)phenyl)pyrimidin-4-yl)oxy)phenyl)acrylamide]	3500	300	651	173	407	–	–
C=CC(=O)Nc1cncc(Nc2nc(Nc3cnn(C)c3)ncc2-c2ccc(C(F)(F)F)cc2)c1 [Compound 195, N-(5-((2-((1-methyl-1H-pyrazol-4-yl)amino)-5-(4-(trifluoromethyl)phenyl)pyrimidin-4-yl)amino)pyridin-3-yl)acrylamide]	524	135	258	57	180	–	–
C=CC(=O)Nc1ccc(F)c(Nc2nc(Nc3cnn(CCN(C)C)c3)ncc2-c2ccc(Br)cc2)c1 [Compound 203, N-(3-((5-(4-bromophenyl)-2-((1-(2-(dimethylamino)ethyl)-1H-pyrazol-4-yl)amino)pyrimidin-4-yl)amino)-4-fluorophenyl)acrylamide]	–	100	110	69	107	51	–
C=CC(=O)Nc1ccc(F)c(Nc2nc(Nc3cn(CCN(C)C)nc3Cl)ncc2-c2ccc(C(F)(F)F)cc2)c1 [Compound 221, N-(3-((2-((3-chloro-1-(2-(dimethylamino)ethyl)-1H-pyrazol-4-yl)amino)-5-(4-(trifluoromethyl)phenyl)pyrimidin-4-yl)amino)-4-fluorophenyl)acrylamide]	–	297	298	123	225	68	–
C=CC(=O)Nc1ccc(F)c(Nc2nc(Nc3cnn(C)c3)ncc2-c2cncs2)c1 [Compound 230, N-(4-fluoro-3-((2-((1-methyl-1H-pyrazol-4-yl)amino)-5-(thiazol-5-yl)pyrimidin-4-yl)amino)phenyl)acrylamide]	–	63	54	63	41	109	–
C=CC(=O)Nc1cccc(Oc2nc(Nc3cn(C)nc3Cl)ncc2-c2ccc(C(F)(F)F)cc2)c1 [Compound 233, N-[3-({2-[(3-chloro-1-methyl-1H-pyrazol-4-yl)amino]-5-[4-(trifluoromethyl)phenyl]pyrimidin-4-yl}oxy)phenyl] prop-2-enamide]	–	428	537	187	385	262	–
[2H]C([2H])([2H])n1cc(Nc2ncc(-c3ccc(C(F)(F)F)cc3)c(Nc3cc(NC(=O)C=C)ccc3F)n2)cn1 [Compound 242, N-{4-fluoro-3-[(2-{[1-(^2H3)methyl-1H-pyrazol-4-yl]amino}-5-[4-(trifluoromethyl)phenyl]pyrimidin-4-yl)amino]phenyl}prop-2-enamide]	–	101	133	98	101	129	–
C=CC(=O)Nc1ccc(F)c(Nc2nc(Nc3cnn(C)c3)ncc2-c2ccc(C(F)(F)F)cc2)c1 [Compound 243, N-(4-fluoro-3-((2-((1-(methyl-^13C-d3)-1H-pyrazol-4-yl)amino)-5-(4-(trifluoromethyl)phenyl)pyrimidin-4-yl)amino)phenyl)acrylamide]	–	135	237	88	121	–	2600
[2H]C([2H])=CC(=O)Nc1ccc(F)c(Nc2nc(Nc3cnn(C)c3)ncc2-c2ccc(C(F)(F)F)cc2)c1 [Compound 247, N-[4-fluoro-3-({2-[(1-methyl-1H-pyrazol-4-yl)amino]-5-[4-(trifluoromethyl)phenyl]pyrimidin-4-yl}amino)phenyl] (3,3-2H2) prop-2-enamide]	–	123	270	86	144	3000	–
[2H]C([2H])=CC(=O)Nc1ccc(F)c(Nc2nc(Nc3cnn(C([2H])([2H])[2H])c3)ncc2-c2ccc(C(F)(F)F)cc2)c1 [Compound 248, N-(4-fluoro-3-((2-((1-(methyl-d3)-1H-pyrazol-4-yl)amino)-5-(4-(trifluoromethyl)phenyl)pyrimidin-4-yl)amino)phenyl)acrylamide-3,3-d2]	–	143	250	109	43	222	–
